Source: PMC5397431, “Multigeneration toxicity of imidacloprid and thiacloprid to Folsomia candida” (Ecotoxicology (London, England), 2017)
Several values for one entry are separate records, joined by “and”; a condition that tells them apart may be missing. Equal entries are not always repeated. Where two headings read alike, the source gives them in different places.

Columns and labels:
[1] = cited from earlier work
[2] = Chemical analysis of concentrations in test soil (LC-MS) and degradation half-life (DT50); format: physicochemical; settings: for concentration, % of the nominal concentration: after 63 days
Description: Soil samples for chemical analysis of imidacloprid and thiacloprid in the test soil were taken at the start of the exposure of each new generation.
The analytical method to determine actual imidacloprid and thiacloprid concentrations in the test soils followed the principles of the QuEChERS extraction method modified from Anastasiades et al. ([2003]) and Payá et al. ([2007]). Briefly, the procedure used was as follows: approx. 1 g moist soil was taken for low concentration treatments (<1 mg/kg), and 50 µL internal standard (Imidacloprid-d4 and Thiacloprid-d4, 250 µg/L) was added. The sample was shaken for 20 min at 250 rpm with 2 mL methanol and centrifuged for 3 min at 1500 rpm. The methanol phase was passed through a granular Na2SO4 column, evaporated till dryness and the residue taken up in 3 mL acetonitrile. For high concentration samples (>1 mg/kg), the soil was first shaken with methanol and centrifuged. Subsequently an aliquot of 100 µL was taken and together with 50 µL internal standard (Imidacloprid-d4 and Thiacloprid-d4, 250 µg/L) added to 1 mL methanol, passed through a granular Na2SO4 column, evaporated to dryness and taken up in 3 mL acetonitrile. For clean-up, the acetonitrile extract was added to a tube filled with Supel QuE (C18 150 mg, PSA 150 mg, MgSO4 900 mg, Sigma Aldrich), shaken by hand for 2 min and centrifuged for 3 min at 3000 rpm. The supernatant was evaporated till dryness under gentle nitrogen stream and the residue taken up in 200 µL of a water-methanol (9/1) mixture.
Extracts were analyzed using LC-MS and quantified by isotope dilution (imidacloprid-d4 and thiacloprid-d4). The neonicotinoids were separated on a 100 × 2.1 mm, 2.6 µm Kinetex XB-C18 column (Phenomenex), applying a gradient of 5 mM ammonium formate pH 4 buffer and methanol, at a flow rate of 0.3 mL/min. The LC system (Agilent 1200 series) was coupled to a 6410 triple quadrupole MS (Agilent) using electrospray ionization (ESI) with data acquisition in positive ion mode. The transitions for imidacloprid were 256.1 > 175/209 (quantifier/qualifier) and for imidacloprid-d4 260 > 179. For thiacloprid the transitions were253.1 > 126/90 (quantifier/qualifier) with 257 > 126 for thiacloprid-d4.
Using data on the imidacloprid and thiacloprid concentrations measured at different times after spiking the soil in the multigeneration test, half-life (DT50) values were estimated assuming first order degradation kinetics. The equation C = C0 * e^−k*t was fitted to the data, with C = concentration at time t in days, C0 is concentration at t = 0 and k = degradation rate constant (day^−1). DT50 was derived as ln(2) / k.

Folsomia candida [3] = assay: Multigeneration toxicity test (survival and reproduction) with springtails in spiked LUFA 2.2 soil; format: in vivo; settings: for EC10 / EC50: number of juveniles
Description: F. candida were taken from cultures at the Department of Ecological Science at the Vrije Universiteit in Amsterdam. To obtain age-synchronized animals, adults from the culture were separated in boxes with a layer of plaster of Paris over a period of 2–3 days to lay eggs, after which they were removed. After removal of the adults, the eggs were incubated under a 12 h light/12 h dark regime at 20 °C and 75% relative humidity, where they hatched and grew. Juveniles of 10–12 days old were used for testing.
All tests were performed in the natural standard LUFA 2.2 (Lufa Speyer, Germany), a loamy sand with 1.59 ± 0.13% organic carbon, pH in 0.01 M CaCl2 of 5.4 ± 0.2, and water holding capacity (WHC) of 43.5 ± 2.8% of its dry weight.
Pure imidacloprid and thiacloprid (purity 98%) were kindly provided by Bayer CropScience, Monheim, Germany. Test concentrations of imidacloprid and thiacloprid were based on the results of earlier tests. Stock solution of both compounds in water were prepared, to spike the chemicals into the soil and at the same time bringing moisture content to the desired level of 50% of the WHC. To ensure complete thiacloprid dissolution, a small amount of acetone was added to the stock solution. This stock solution was used to spike soil with the highest test concentration and further diluted for spiking soil with the lower concentrations tested. Considering the low amount of acetone needed to make thiacloprid completely dissolve, no attempts were made to correct for that by adding acetone to the lower concentrations and control in the multigeneration test. All soils were thoroughly mixed to achieve a homogenous distribution of the test chemicals in the test soil.
Multigeneration tests started with a control, […] imidacloprid (0, 0.001, 0.003, 0.01, 0.03, 0.1, 0.3, 1.0 mg/kg dry soil) and 9 thiacloprid concentrations (0, 0.0015, 0.0045, 0.014, 0.041, 0.11, 0.31, 1.1, 3.3, 10.0 mg/kg dry soil). Batches of soil sufficient to perform three toxicity tests were prepared. After filling test jars for the parent generation exposure, the remaining spiked soil was stored in glass jars in a climate room at 20 °C for subsequent exposure of the next two generations. Moisture content of the spiked soil was checked regularly by weighing the jars, and replenished by adding deionized water if needed.
After 28 days (35 days for the second generation), the juveniles from the same exposure concentration were pooled in the same container with a moist plaster of Paris bottom and incubated overnight before being transferred to the next cycle of exposure. This experiment spanned a total of three continuous generations (referred to as F0, F1, and F2).

Folsomia candida [4] = settings: cited from earlier work
Folsomia candida [5] = settings: 28 days, LUFA 2.2 soil
Description: Tests were performed in 100 ml glass jars, containing c. 30 g moist soil, using five replicate test jars for each exposure concentration. Each jar received ten 10–12 day old animals from age-synchronized cultures, after checking their health under a binocular microscope. The animals were fed with a few grains of dry baker’s yeast (Instant yeast from Algist Bruggeman N.V, Ghent, Belgium) weekly, in small amounts to avoid fungal growth. All incubations took place at 20 ± 2 °C at 75% Relative Humidity and a photoperiod of 16:8 dark: light hours. Test jars were weighed at the start, so that water loss could be monitored on a weekly basis and replenished with deionized water if needed. After exposure, all animals were extracted by flotation and pictures were taken to enable counting the number of surviving adults and juveniles produced using the software package ImageJ with a Cell Counter extension.
If no proper fit was obtained, LC50 values were calculated using the trimmed Spearman-Karber method (Hamilton et al. [1977]/78). No observed effect concentrations (NOEC) were determined applying a one-way ANOVA followed by a one-sided Dunnett’s post hoc test at a significance level of p < 0.05. All statistical analysis, except for the Trimmed Spearman Karber method, were run in SPSS 23.

[6] = F0 generation, 28 days, LUFA 2.2 soil, nominal concentrations
[7] = F1 and F2 generations, 3.3 mg/kg dry soil
[8] = F1 generation, 35 days, soil spiked at start of F0, nominal concentrations
[9] = F2 generation, 28 days, soil spiked at start of F0, nominal concentrations
[10] = F2 generation, 28 days, soil spiked at start of F0, nominal concentrations, listed as thiacloprid
[11] = 28-day exposure, Lufa 2.2, ~3.0% OM, pure, ref De Lima e Silva et al. (submitted)
[12] = number of juveniles, with 95% confidence interval

For N#C/N=C1\SCCN1Cc1ccc(Cl)nc1 [Thiacloprid, thiacloprid], which field-based half-lives ([1]; field, ref European Commission (2004)) is on record?
Its field-based half-lives is 9 to 27 days.

What about the half-life in soil ([1]; laboratory tests, ref Goulson (2013), Bonmatin et al. (2015)) of the same compound?
The half-life in soil was 3.4 to 74 days.

And the “factor less persistent in soil than imidacloprid” value ([1]; ref Goulson (2013), Bonmatin et al. (2015))?
The value was 10.

And the half-life ([2]; LUFA 2.2 soil (spiked natural loamy sand), pH 5.4, LUFA 2.2 soil, 20 °C, first order kinetics, read-out: DT50 (half-life) for degradation in test soil)?
Its half-life is 10 to 12 days.

And the “concentration, % of nominal” value ([2]; LUFA 2.2 soil, after 28 days, 1.1 and 3.3 mg/kg dry soil)?
The value was 91.2–101% and 90–100%.

And the “concentration, % of the nominal values” ([2]; LUFA 2.2 soil, after 63 days of incubation, all concentrations)?
Its value is 7.6–22.0%.

What about the “concentration, % of the nominal concentration” value ([2]; LUFA 2.2 soil, 0.0137 mg/kg) of the same compound?
The value was 22.0%.

What about the “concentration, % of the nominal concentration” value ([2]; LUFA 2.2 soil, 0.113 mg/kg) of the same compound?
Its value is 19.8%.

What about the “concentration measured in soil” value ([2]; T=28, nominal 1.11, mean ± SD (n=3)) of the same compound?
Its value is 1.1±0.35 mg/kg dry soil.

And the “concentration measured in soil” value ([2]; T=28, nominal 3.33, mean ± SD (n=3))?
The value was 3.0±0.42 mg/kg dry soil.

What about the “concentration measured in soil” value ([2]; T=28, nominal 10, mean ± SD (n=3)) of the same compound?
The value was 5.7±0.27 mg/kg dry soil.

And the “concentration measured in soil” value ([2]; T=63 d, nominal 0.014, mean ± SD (n=3))?
Its value is 0.003±0.0002 mg/kg dry soil.

What about the “concentration measured in soil” value ([2]; T=63 d, nominal 0.113, mean ± SD (n=3)) of the same compound?
The value was 0.022±0.00044 mg/kg dry soil.

What about the “concentration measured in soil” value ([2]; T=63 d, nominal 1.11, mean ± SD (n=3)) of the same compound?
Its value is 0.12±0.0054 mg/kg dry soil.

What about the “concentration measured in soil” value ([2]; T=63 d, nominal 3.33, mean ± SD (n=3)) of the same compound?
Its value is 0.26±0.0038 mg/kg dry soil.

And the “concentration measured in soil” value ([2]; T=63 d, nominal 10, mean ± SD (n=3))?
The value was 0.76±0.015 mg/kg dry soil.

And the effect on reproduction (Folsomia candida [3]; F0 generation, 3.3 mg/kg dry soil)?
Its effect on reproduction is “significantly reduced”.

And the NOEC (Folsomia candida [3]; [6])?
Its NOEC is 0.11 mg/kg dry soil.

What about the LC50 (Folsomia candida [3]; F0 generation, 28 days, adult survival, LUFA 2.2 soil, nominal concentrations) of the same compound?
Its LC50 is 9.0 mg/kg dry soil.

And the EC10 (Folsomia candida [3]; [6])?
The EC10 was 0.23 mg/kg dry soil.

What about the EC50 (Folsomia candida [3]; [6]) of the same compound?
Its EC50 is 1.5 mg/kg dry soil.

And the “juveniles produced, on average” value (Folsomia candida [3]; F0 generation, highest concentration tested 10 mg/kg dry soil)?
The value was 3 per jar.

What about the “effects on juvenile numbers” value (Folsomia candida [3]; [7]) of the same compound?
Its value is “no effects”.

And the springtail reproduction affected (Folsomia candida [3]; [7])?
The springtail reproduction affected was “less than 50%”.

And the EC50 (Folsomia candida [3]; [8])?
The EC50 was > 3.33 mg/kg dry soil and > 3.3 mg/kg dry soil.

What about the LC50 (Folsomia candida [3]; [8]) of the same compound?
Its LC50 is > 3.33 mg/kg dry soil and > 3.3 mg/kg dry soil.

And the NOEC (Folsomia candida [3]; [8])?
Its NOEC is at least 3.3 mg/kg dry soil.

What about the EC10 (Folsomia candida [3]; [9]) of the same compound?
Its EC10 is over 3.3 mg/kg dry soil.

And the EC50 (Folsomia candida [3]; [9])?
Its EC50 is over 3.3 mg/kg dry soil.

And the EC50 (Folsomia candida [3]; [10])?
Its EC50 is > 3.33 mg/kg dry soil and > 3.3 mg/kg dry soil.

And the LC50 (Folsomia candida [3]; [9])?
Its LC50 is over 3.3 mg/kg dry soil.

And the LC50 (Folsomia candida [3]; [10])?
Its LC50 is > 3.33 mg/kg dry soil and > 3.3 mg/kg dry soil.

And the NOEC (Folsomia candida [3]; [10])?
The NOEC was 1.1 mg/kg dry soil.

What about the “LC50, range over generations” value (Folsomia candida [3]; range over the three generations, Lufa 2.2, pure compound, this study) of the same compound?
The value was >3.33-9.0 mg/kg dry soil.

What about the EC50 (Folsomia candida [4]; [11]) of the same compound?
The EC50 was 1.7-2.4 mg/kg dry soil.

And the LC50 (Folsomia candida [4]; [11])?
Its LC50 is 4.3-4.9 mg/kg dry soil.

For OB(O)O [Boric acid, boric acid], which NOEC (Folsomia candida [5]) is on record?
Its NOEC is 20 mg/kg dry soil.

What about the EC10 (Folsomia candida [5]; [12]) of the same compound?
Its EC10 is 29 (25–33) mg/kg dry soil.

And the EC50 (Folsomia candida [5]; [12])?
Its EC50 is 51 (47–54) mg/kg dry soil.

And the EC50 (Folsomia candida [4]; OECD artificial soil, value mentioned in the test guideline, ref OECD (2009))?
Its EC50 is 100 mg/kg dry soil.
